target: T1, human LPA1 (Homo sapiens, UniProt Q92633); assay: LPA1 functional antagonist assay (LPA-induced calcium flux in CHO cells overexpressing human LPA1); type: cell-based; details: inhibition of calcium flux induced by 10 nM LPA, CHO cells overexpressing human LPA1; read-out: hLPA1 IC50
T1 construct: expressed in transfected cells; host or cells: Chinese hamster ovary (CHO) cells
In short: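 CHO cells overexpressing human LPA1, dye-loaded 30 min at 37 °C, then given compound (0.08 nM–5 μM final, 0.5% DMSO) in HBSS/20 mM HEPES/0.1% fatty-acid-free BSA for 20 min at room temperature before 10 nM LPA. IC50 as 50% inhibition of LPA-evoked calcium flux, 4-parameter logistic fit.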

T1 sequence (Q92633 whole entry): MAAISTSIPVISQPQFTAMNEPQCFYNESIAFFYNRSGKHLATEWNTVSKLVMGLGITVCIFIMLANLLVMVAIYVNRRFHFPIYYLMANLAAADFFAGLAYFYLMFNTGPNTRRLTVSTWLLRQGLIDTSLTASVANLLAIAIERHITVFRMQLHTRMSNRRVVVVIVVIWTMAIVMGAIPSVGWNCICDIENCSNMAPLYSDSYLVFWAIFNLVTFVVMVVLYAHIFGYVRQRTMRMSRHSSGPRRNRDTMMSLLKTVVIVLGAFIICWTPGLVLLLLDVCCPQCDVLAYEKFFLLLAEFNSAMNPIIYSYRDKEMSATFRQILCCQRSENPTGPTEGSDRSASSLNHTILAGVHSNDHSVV

Row | IC50 [nM] | Compound
1 | 8 | Cc1nc(-c2nnn(C)c2Cc2noc(CCC3CCC3)n2)ccc1O[C@H]1CCC[C@H](C(=O)O)C1 [Example 232, (1S,3S)-3-((6-(5-((5-(2-cyclobutylethyl)-1,2,4-oxadiazol-3-yl)methyl)-1-methyl-1H-1,2,3-triazol-4-yl)-2-methylpyridin-3-yl)oxy)cyclohexane-1-carboxylic acid]
2 | 8 | CCCCc1nc(Cc2c(-c3ccc(O[C@H]4CCC[C@H](C(=O)O)C4)c(C)n3)nnn2C)no1 [Example 233, (1S,3S)-3-((6-(5-((5-butyl-1,2,4-oxadiazol-3-yl)methyl)-1-methyl-1H-1,2,3-triazol-4-yl)-2-methylpyridin-3-yl)oxy)cyclohexane-1-carboxylic acid]
3 | 52 | Cc1nc(-c2nnn(C)c2Cc2noc(CC(C)C)n2)ccc1O[C@H]1CCC[C@H](C(=O)O)C1 [Example 234, (1S,3S)-3-((6-(5-((5-isobutyl-1,2,4-oxadiazol-3-yl)methyl)-1-methyl-1H-1,2,3-triazol-4-yl)-2-methylpyridin-3-yl)oxy)cyclohexane-1-carboxylic acid]
4 | 59 | CCCc1nc(Cc2c(-c3ccc(O[C@H]4CCC[C@H](C(=O)O)C4)c(C)n3)nnn2C)no1 [Example 235, (1S,3S)-3-((2-methyl-6-(1-methyl-5-((5-propyl-1,2,4-oxadiazol-3-yl)methyl)-1H-1,2,3-triazol-4-yl)pyridin-3-yl)oxy)cyclohexane-1-carboxylic acid]
5 | 28 | Cc1nc(-c2nnn(C)c2Cc2noc(CC3CCC3)n2)ccc1O[C@H]1CCC[C@H](C(=O)O)C1 [Example 236, (1S,3S)-3-((6-(5-((5-(cyclobutyl-methyl)-1,2,4-oxadiazol-3-yl)methyl)-1-methyl-1H-1,2,3-triazol-4-yl)-2-methylpyridin-3-yl)oxy)cyclohexane-1-carboxylic acid]
6 | 61 | Cc1nc(-c2nnn(C)c2Cc2noc(CCC(F)(F)F)n2)ccc1O[C@H]1CCC[C@H](C(=O)O)C1 [Example 240]
7 | 33 | Cc1nc(-c2nnn(C)c2Cc2nc(CCC(C)C)no2)ccc1O[C@H]1CCC[C@H](C(=O)O)C1 [Example 241, (1 S,3 S)-3-((6-(5-((3-isopentyl-1,2,4-oxadiazol-5-yl)methyl)-1-methyl-1H-1,2,3-triazol-4-yl)-2-methylpyridin-3-yl)oxy)cyclohexane-1-carboxylic acid]
8 | 58 | Cc1nc(-c2nnn(C)c2Cc2nc(CC(C)C)no2)ccc1O[C@H]1CCC[C@H](C(=O)O)C1 [Example 243, (1S,3S)-3-((6-(5-((3-isobutyl-1,2,4-oxadiazol-5-yl)methyl)-1-methyl-1H-1,2,3-triazol-4-yl)-2-methylpyridin-3-yl)oxy)cyclohexane-1-carboxylic acid]
9 | 40 | Cc1nc(-c2nnn(C)c2Cc2nc(CC3CC3)no2)ccc1O[C@H]1CCC[C@H](C(=O)O)C1 [Example 246, (1S,3S)-3-((6-(5-((3-(cyclopropyl-methyl)-1,2,4-oxadiazol-5-yl)methyl)-1-methyl-1H-1,2,3-triazol-4-yl)-2-methylpyridin-3-yl)oxy)cyclohexane-1-carboxylic acid]
10 | 82 | CCCc1noc(Cc2c(-c3ccc(O[C@H]4CCC[C@H](C(=O)O)C4)c(C)n3)nnn2C)n1 [Example 247, (1S,3S)-3-((2-methyl-6-(1-methyl-5-((3-propyl-1,2,4-oxadiazol-5-yl)methyl)-1H-1,2,3-triazol-4-yl)pyridin-3-yl)oxy)cyclohexane-1-carboxylic acid]
11 | 61 | Cc1nc(-c2nnn(C)c2Cc2nc(COC(C)C)no2)ccc1O[C@H]1CCC[C@H](C(=O)O)C1 [Example 248, (1S,3S)-3-((6-(5-((3-(isopropoxy-methyl)-1,2,4-oxadiazol-5-yl)methyl)-1-methyl-1H-1,2,3-triazol-4-yl)-2-methylpyridin-3-yl)oxy)cyclohexane-1-carboxylic acid]
12 | 76 | CCOCc1noc(Cc2c(-c3ccc(O[C@H]4CCC[C@H](C(=O)O)C4)c(C)n3)nnn2C)n1 [Example 249, (1S,3S)-3-((6-(5-((3-(ethoxymethyl)-1,2,4-oxadiazol-5-yl)methyl)-1-methyl-1H-1,2,3-triazol-4-yl)-2-methylpyridin-3-yl)oxy)cyclohexane-1-carboxylic acid]

Continued, compound first:

Row | Compound | IC50 [nM]
13 | Cc1nc(-c2nnn(C)c2Cc2noc(Cc3ccccc3)n2)ccc1O[C@H]1CCC[C@H](C(=O)O)C1 [Example 237, (1S,3S)-3-((6-(5-((5-benzyl-1,2,4-oxadiazol-3-yl)methyl)-1-methyl-1H-1,2,3-triazol-4-yl)-2-methylpyridin-3-yl)oxy)cyclohexane-1-carboxylic acid] | 8
14 | Cc1nc(-c2nnn(C)c2Cc2noc(-c3ccccc3)n2)ccc1O[C@H]1CCC[C@H](C(=O)O)C1 [Example 238, (1S,3S)-3-((2-methyl-6-(1-methyl-5-((5-phenyl-1,2,4-oxadiazol-3-yl)methyl)-1H-1,2,3-triazol-4-yl)pyridin-3-yl)oxy)cyclohexane-1-carboxylic acid] | 161
15 | COc1cccc(Cc2noc(Cc3c(-c4ccc(O[C@H]5CCC[C@H](C(=O)O)C5)c(C)n4)nnn3C)n2)c1 [Example 242, (1S,3S)-3-((6-(5-((3-(3-methoxy-benzyl)-1,2,4-oxadiazol-5-yl)methyl)-1-methyl-1H-1,2,3-triazol-4-yl)-2-methylpyridin-3-yl)oxy)cyclohexane-1-carboxylic acid] | 2020
16 | Cc1nc(-c2nnn(C)c2Cc2nc(Cc3ccccc3)no2)ccc1O[C@H]1CCC[C@H](C(=O)O)C1 [Example 244, (1S,3S)-3-((6-(5-((3-benzyl-1,2,4-oxadiazol-5-yl)methyl)-1-methyl-1H-1,2,3-triazol-4-yl)-2-methylpyridin-3-yl)oxy)cyclohexane-1-carboxylic acid] | 40
17 | Cc1nc(-c2nnn(C)c2Cc2nc(-c3ccccc3)no2)ccc1O[C@H]1CCC[C@H](C(=O)O)C1 [Example 245, (1S,3S)-3-((2-methyl-6-(1-methyl-5-((3-phenyl-1,2,4-oxadiazol-5-yl)methyl)-1H-1,2,3-triazol-4-yl)pyridin-3-yl)oxy)cyclohexane-1-carboxylic acid] | 79
18 | Cn1nnc(-c2ccc(O[C@H]3CCC[C@H](C(=O)O)C3)cn2)c1Cn1nnc(CC2CC2)n1 [Example 250, (1 S,3 S)-3-((6-(5-((5-(cyclopropylmethyl)-2H-tetrazol-2-yl)methyl)-1-methyl-1H-1,2,3-triazol-4-yl)pyridin-3-yl)oxy)cyclohexane-1-carboxylic acid] | 44
19 | Cn1nnc(-c2ccc(O[C@H]3CCC[C@H](C(=O)O)C3)cn2)c1Cn1nnnc1CC1CC1 [Example 251, (1S,3S)-3-((6-(5-((5-(cyclopropylmethyl)-1H-tetrazol-1-yl)methyl)-1-methyl-1H-1,2,3-triazol-4-yl)pyridin-3-yl)oxy)cyclohexane-1-carboxylic acid] | 125
20 | CCCc1nnn(Cc2c(-c3ccc(O[C@H]4CCC[C@H](C(=O)O)C4)cn3)nnn2C)n1 [Example 252, (1S,3S)-3-((6-(1-methyl-5-((5-propyl-2H-tetrazol-2-yl)methyl)-1H-1,2,3-triazol-4-yl)pyridin-3-yl)oxy)cyclohexane-1-carboxylic acid] | 531
21 | CCCc1nnnn1Cc1c(-c2ccc(O[C@H]3CCC[C@H](C(=O)O)C3)cn2)nnn1C [Example 253, (1S,3S)-3-((6-(1-methyl-5-((5-propyl-1H-tetrazol-1-yl)methyl)-1H-1,2,3-triazol-4-yl)pyridin-3-yl)oxy)cyclohexane-1-carboxylic acid] | 264
22 | CC(C)Cc1nnn(Cc2c(-c3ccc(O[C@H]4CCC[C@H](C(=O)O)C4)cn3)nnn2C)n1 [Example 254, (1S,3S)-3-((6-(5-((5-isobutyl-2H-tetrazol-2-yl)methyl)-1-methyl-1H-1,2,3-triazol-4-yl)pyridin-3-yl)oxy)cyclohexane-1-carboxylic acid] | 288
23 | CC(C)Cc1nnnn1Cc1c(-c2ccc(O[C@H]3CCC[C@H](C(=O)O)C3)cn2)nnn1C [Example 255, (1S,3S)-3-((6-(5-((5-isobutyl-1H-tetrazol-1-yl)methyl)-1-methyl-1H-1,2,3-triazol-4-yl)pyridin-3-yl)oxy)cyclohexane-1-carboxylic acid] | 237
24 | CCCCc1nnnn1Cc1c(-c2ccc(O[C@H]3CCC[C@H](C(=O)O)C3)cn2)nnn1C [Example 256, (1S,3S)-3-((6-(5-((5-butyl-1H-tetrazol-1-yl)methyl)-1-methyl-1H-1,2,3-triazol-4-yl)pyridin-3-yl)oxy)cyclohexane-1-carboxylic acid] | 111
25 | CCCCc1nnn(Cc2c(-c3ccc(O[C@H]4CCC[C@H](C(=O)O)C4)cn3)nnn2C)n1 [Example 257, (1S,3S)-3-((6-(5-((5-butyl-2H-tetrazol-2-yl)methyl)-1-methyl-1H-1,2,3-triazol-4-yl)pyridin-3-yl)oxy)cyclohexane-1-carboxylic acid] | 12.5
26 | Cn1nnc(-c2ccc(O[C@H]3CCC[C@H](C(=O)O)C3)cn2)c1Cn1nnnc1C1CCCC1 [Example 258, (1S,3S)-3-((6-(5-((5-cyclopentyl-1H-tetrazol-1-yl)methyl)-1-methyl-1H-1,2,3-triazol-4-yl)pyridin-3-yl)oxy)cyclohexane-1-carboxylic acid] | 433
27 | Cn1nnc(-c2ccc(O[C@H]3CCC[C@H](C(=O)O)C3)cn2)c1Cn1nnc(C2CCCC2)n1 [Example 259, (1S,3S)-3-((6-(5-((5-cyclopentyl-2H-tetrazol-2-yl)methyl)-1-methyl-1H-1,2,3-triazol-4-yl)pyridin-3-yl)oxy)cyclohexane-1-carboxylic acid] | 31
28 | Cc1nc(-c2nnn(C)c2Cn2ncc(CC(C)C)n2)ccc1O[C@H]1CCC[C@H](C(=O)O)C1 [Example 260, (1 S,3 S)-3-((6-(5-((4-Isobutyl-2H-1,2,3-triazol-2-yl)methyl)-1-methyl-1H-1,2,3-triazol-4-yl)-2-methylpyridin-3-yl)oxy)cyclohexane-1-carboxylic acid] | 35
